According to US20260216147A1, “USE OF A THIENOPYRIDONE DERIVATIVE IN THE TREATMENT OF DIABETIC NEPHROPATHY” (POXEL, priority 2020, published 2026):

Columns and labels:
[1] = background statement; cited from earlier work
[2] = background statement; cited from earlier work; remark: listed apart in the source
obese ZSF1 rats [3] = experiment: Albuminuria in 15 h overnight urine of obese ZSF1 rats; assay type: in vivo, rat; settings: 150 mg/kg oral gavage twice a day
Description: (§1) ZSF1 rat is a Leptin-resistant, obese, hypertensive Zucker diabetic fatty/Spontaneously hypertensive heart failure F1 hybrid (ZSF1) rat. The obese ZSF1 rat is described as a relevant pre-clinical model for the study of renal function decline to end stage renal disease in the setting of type 2 diabetes (Dower K et al., PLOS ONE 2017; 12 (7): e0181861).
(§2) Obese ZSF1 rats and lean ZSF1 (Lean) were 12-week-old at the time of treatment initiation.
(§3) The following groups were constituted: • Lean rats (untreated; n=5-8) • ZSF1 rats (untreated; n=9-12) • ZSF1 treated with PXL770 (n=8-12).
(§4) The compound of Example 2, also known as PXL770 was administered by oral gavage at the dose of 150 mg/kg twice a day for 8 days (13 weeks of age) or 90 days (24-week old of age).
(§5) The PXL770 suspension was prepared at the concentrations used in the study (150 mg/kg) in the vehicle, i.e. carboxymethylcellulose 0.5%/Tween 80 (98/2).
(§6) Randomly selected animals of each group (n=8-12) were placed in separate metabolic cages in order to collect 15 h over-night urine samples at D8 and D90. Albuminuria was determined as indicator of renal dysfunction using IDEXX Vetlab analyzer. Glycosuria was determined using IDEXX Vetlab analyzer. […]

obese ZSF1 rats [4] = experiment: Glomerular filtration rate (FITC-sinistrin, transcutaneous) in obese ZSF1 rats; assay type: in vivo, rat; settings: 150 mg/kg oral gavage twice a day, 90 days (24 weeks of age), vs untreated ZSF1 rats
Description: as §1, §2, §3, §4, §5
At D8 and D90, glomerular filtration rate was determined with the fluorescent glomerular filtration rate tracer fluorescein isothiocyanate (FITC)-sinistrin using the transcutaneous glomerular filtration rate system (NIC-Kidney; Mannheim Pharma and Diagnostics GmbH, Mannheim, Germany) (Schock-Kusch D. et al., PLOS One 2013; 8, e71519). […]

obese ZSF1 rats [5] = experiment: Glycosuria in 15 h overnight urine of obese ZSF1 rats; assay type: in vivo, rat; settings: 150 mg/kg oral gavage twice a day
Description: as §1, §2, §3, §4, §5, §6

obese ZSF1 rats [6] = experiment: Urine volume (15 h overnight, metabolic cages) of obese ZSF1 rats; assay type: in vivo, rat; settings: 150 mg/kg oral gavage twice a day, 90 days, vs untreated ZSF1 rats
Description: as §1, §2, §3, §4, §5, §6

[7] = system: preclinical model of diabetic nephropathy; settings: K. O. Cameron et al., J. Med. Chem. 2016; cited from earlier work

Molecule: N#Cc1c(O)c2c(-c3ccc(-c4ccccc4O)cc3)csc2[nH]c1=O [Compound A-799662]
- Oral bioavailability [1]: poor oral bioavailability

Molecule: MK-8722
- Cardiac side effects [2]: known to trigger cardiac side effects

Molecule: O=c1[nH]c2sc(Cl)c(-c3ccc4c(c3O)CCCC4)c2c([O-])c1-c1ccccc1.[K+] [PXL770, monohydrate potassium salt of 2-chloro-4-hydroxy-3-(5-hydroxytetralin-6-yl)-5-phenyl-7H-thieno[2,3-b]pyridin-6-one]
- Albuminuria (urine albumin level) (obese ZSF1 rats [3]; 8 days (13 weeks of age), vs age-matched untreated ZSF1 rats): a decrease in albuminuria was observed
- Albuminuria (urine albumin level) (obese ZSF1 rats [3]; 90 days (24 weeks of age), vs untreated ZSF1 rats): significantly reduced
- Glomerular filtration rate (GFR) (obese ZSF1 rats [4]): significantly prevented the decrease in GFR
- Glycosuria (urine glucose level) (obese ZSF1 rats [5]; 8 days): reduced glycosuria
- Glycosuria (urine glucose level) (obese ZSF1 rats [5]; 90 days): reduced glycosuria
- Urine volume (obese ZSF1 rats [6]): decreased significantly urine volume

Molecule: O=C(O)c1c[nH]c2cc(Cl)c(-c3ccc(C4(O)CCC4)cc3)cc12 [PF-06409577]
- Efficacy in a preclinical model of diabetic nephropathy [7]: showed efficacy
